What was measured:
[1] = target: T1, Avi-KRAS G12V (1-169) GppNHp/RAF1 RBD-3xFLAG (52-151) (Homo sapiens, UniProt P01116, G12V); test: Raf1-KRAS G12V-GppNHP disruption HTRF assay (Biological Example 1); format: binding
T1 construct: Avi-KRAS G12V (1-169)
Method in brief: (§1)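 First, protein mix in Tris pH 7.5 buffer with NaCl, MgCl2, BSA, Tween and 10% DMSO is incubated 1 h at room temperature. Next, reagent mix is added and incubated a further 1 h at room temperature. Finally, HTRF is read and activity normalized to DMSO.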

[2] = target: T2, Avi-KRAS WT (1-169) GppNHp/RAF1 RBD-3xFLAG (52-151) (Homo sapiens, UniProt P01116); test: Raf1-KRAS WT-GppNHP disruption HTRF assay (Biological Example 1); format: binding
T2 construct: Avi-KRAS WT (1-169)
Method in brief: as §1

SW620 cells (KRAS G12V) = test: Cell-based pERK HTRF assay in SW620 cell (Biological Example 4); details: pERK HTRF
Method in brief: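 SW620 cells were treated for 4 h with compound in a 9-point half-log series from 1 μM top (0.25% DMSO), then lysed. Phospho-ERK was detected by HTRF with d2 and Eu cryptate antibodies after 4–24 h at room temperature, read at 615 nm emission.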

[3] = target: T3, Avi-KRAS G12R (1-169) GppNHp/RAF1 RBD-3xFLAG (52-151) (Homo sapiens, UniProt P01116, G12R); test: Raf1-KRAS G12R-GppNHP disruption HTRF assay (Biological Example 1); format: binding
T3 construct: Avi-KRAS G12R (1-169)
Method in brief: as §1

GP2d cells (KRAS G12D) = test: Cell-based pERK HTRF assay in GP2d cell (Biological Example 2); details: GP2d (KRAS G12D) cells, pERK HTRF
Method in brief: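 Cells grown in DMEM with 10% FBS were exposed to compound for 60 min at 0.25% DMSO, using a 9-point half-log series starting at 1 μM or 100 nM. Lysates were then mixed with d2 and Eu cryptate antibodies for 4–24 h at room temperature, and pERK was read by HTRF.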

[4] = target: T4, Avi-KRAS G12D (1-169) GppNHp/RAF1 RBD-3xFLAG (52-151) (Homo sapiens, UniProt P01116, G12D); test: Raf1-KRAS G12D-GppNHP disruption HTRF assay (Biological Example 1); format: binding
T4 construct: Avi-KRAS G12D (1-169)
Method in brief: as §1

[5] = KRAS G12V, GppNHp-loaded, class symbols
[6] = KRAS WT, GppNHp-loaded, class symbols
[7] = Homo sapiens, SW-620, SW620 (KRAS G12V) cells, class symbols
[8] = KRAS G12R, GppNHp-loaded, class symbols
[9] = KRAS G12D, GppNHp-loaded, class symbols
[10] = KRAS G12V, GppNHp-loaded, Table 11
[11] = KRAS WT, GppNHp-loaded, Table 11
[12] = Homo sapiens, SW-620, SW620 (KRAS G12V) cells
[13] = KRAS G12R, GppNHp-loaded, Table 11
[14] = KRAS G12D, GppNHp-loaded, Table 11

T3 sequence (P01116 1-169 isoform P01116-2 G12R): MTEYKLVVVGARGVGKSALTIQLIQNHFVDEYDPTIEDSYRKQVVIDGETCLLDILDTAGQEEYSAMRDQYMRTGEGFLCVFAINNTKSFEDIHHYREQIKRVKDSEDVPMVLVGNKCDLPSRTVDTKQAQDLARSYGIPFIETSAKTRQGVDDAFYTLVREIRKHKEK
T1 sequence (P01116 1-169 isoform P01116-2 G12V): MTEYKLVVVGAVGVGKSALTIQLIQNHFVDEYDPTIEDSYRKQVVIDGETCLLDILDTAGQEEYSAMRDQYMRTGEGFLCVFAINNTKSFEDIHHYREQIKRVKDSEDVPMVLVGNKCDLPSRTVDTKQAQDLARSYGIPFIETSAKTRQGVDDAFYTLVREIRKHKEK
T2 sequence (P01116 1-169 isoform P01116-2): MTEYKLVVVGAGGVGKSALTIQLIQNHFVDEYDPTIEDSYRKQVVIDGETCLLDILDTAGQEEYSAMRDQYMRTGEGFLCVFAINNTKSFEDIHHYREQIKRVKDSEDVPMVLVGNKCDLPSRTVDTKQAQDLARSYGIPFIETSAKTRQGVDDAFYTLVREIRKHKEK
T4 sequence (P01116 1-169 isoform P01116-2 G12D): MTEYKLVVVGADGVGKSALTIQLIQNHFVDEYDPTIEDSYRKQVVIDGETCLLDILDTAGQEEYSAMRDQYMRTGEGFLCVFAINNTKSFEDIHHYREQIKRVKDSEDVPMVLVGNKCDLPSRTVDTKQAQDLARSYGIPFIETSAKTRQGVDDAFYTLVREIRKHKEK

| Compound | IC50 [1, 5] | IC50 [2, 6] | IC50 (SW620 cells (KRAS G12V); [7]) | IC50 [3, 8] | IC50 (GP2d cells (KRAS G12D); GP2d, class symbols) | IC50 [4, 9] | IC50 (SW620 cells (KRAS G12V); [12]) | IC50 (GP2d cells (KRAS G12D); GP2d) | IC50 ([1]; KRAS G12V-GppNHp/RAF1 RBD HTRF) | IC50 ([2]; KRAS WT-GppNHp/RAF1 RBD HTRF) | IC50 ([3]; KRAS G12R-GppNHp/RAF1 RBD HTRF) | IC50 ([4]; KRAS G12D-GppNHp/RAF1 RBD HTRF) | further results |
| --- | --- | --- | --- | --- | --- | --- | --- | --- | --- | --- | --- | --- | --- |
| CCN(c1nc(OC[C@@]23CCCN2C[C@H](F)C3)nc2c(F)c(-c3ccc(F)c4sc(N)c(C#N)c34)c(C(F)(F)F)cc12)[C@H]1CCN(C(=O)OCCF)C1 (atropisomer, axis not shown) [Compound 687] | < 0.1 µM | < 0.1 µM | < 0.1 µM | < 0.1 µM | < 0.1 µM | < 0.1 µM |  |  |  |  |  |  |  |
| N#Cc1c(N)sc2c(F)ccc(-c3c(C(F)(F)F)cc4c(N5CC(F)C5)nc(OC[C@@]56CCCN5C[C@H](F)C6)nc4c3F)c12 [Compound 222] |  |  |  |  |  |  | < 0.1 µM | < 0.1 µM |  |  |  |  | IC50 [1, 10]: 0.1 to 1 µM; IC50 [2, 11]: 0.1 to 1 µM; IC50 [3, 13]: 0.1 to 1 µM; IC50 [4, 14]: 0.1 to 1 µM |
| CC(=O)N1C[C@H](F)[C@@H](N(C)c2nc(OC[C@@]34CCCN3C[C@H](F)C4)nc3c(F)c(-c4ccc(F)c5sc(N)c(C#N)c45)c(C(F)(F)F)cc23)C1 [Compound 273] |  |  |  |  |  |  | 0.1 to 1 µM | < 0.1 µM |  |  |  |  | IC50 [1, 10]: 0.1 to 1 µM; IC50 [2, 11]: 0.1 to 1 µM; IC50 [3, 13]: 0.1 to 1 µM; IC50 [4, 14]: 0.1 to 1 µM |
| CCN(c1nc(OC[C@@]23CCCN2C[C@H](F)C3)nc2c(F)c(-c3ccc(F)c4sc(N)c(C#N)c34)c(C(F)(F)F)cc12)[C@H]1CCN(C(=O)O[C@H]2CCOC2)[C@@H]1C (atropisomer, axis not shown) [Compound 810] | < 0.1 µM | < 0.1 µM | < 0.1 µM | < 0.1 µM | < 0.1 µM | < 0.1 µM |  |  |  |  |  |  |  |
| N#Cc1c(N)sc2c(F)ccc(-c3c(C(F)(F)F)cc4c(N5CCOCC5)nc(OC[C@@]56CCCN5C[C@H](F)C6)nc4c3F)c12 (single isomer, unassigned) [Compound 199] |  |  |  |  |  |  |  |  |  |  |  |  | IC50 [1, 10]: > 10 µM; IC50 [2, 11]: > 10 µM; IC50 (SW620 cells (KRAS G12V); SW620 (KRAS G12V) cells): > 1 µM; IC50 [3, 13]: > 10 µM; IC50 (GP2d cells (KRAS G12D)): > 1 µM; IC50 [4, 14]: > 10 µM |
| CCN1C[C@@H](N(CC)c2nc(OC[C@@]34CCCN3C[C@H](F)C4)nc3c(F)c(-c4ccc(F)c5sc(N)c(C#N)c45)c(C(F)(F)F)cc23)CC1=O (atropisomer, axis not shown) [Compound 634] | < 0.1 µM | < 0.1 µM | < 0.1 µM | < 0.1 µM | < 0.1 µM | < 0.1 µM |  |  |  |  |  |  |  |
| COC1C2CN(c3nc(OC[C@@]45CCCN4C[C@H](F)C5)nc4c(F)c(-c5ccc(F)c6sc(N)c(C#N)c56)c(C(F)(F)F)cc34)C1CO2 (stereo partly drawn) [Compound 509] |  |  |  |  |  |  | < 0.1 µM | < 0.1 µM | 0.1 to 1 µM | 0.1 to 1 µM | 0.1 to 1 µM | 0.1 to 1 µM |  |
| CCN(c1nc(OC[C@@]23CCCN2C[C@H](F)C3)nc2c(F)c(-c3ccc(F)c4sc(N)c(C#N)c34)c(C(F)(F)F)cc12)[C@H]1C[C@H](C)N(C(=O)[C@H](C)OC)C1 (atropisomer, axis not shown) [Compound 739] | 0.1 to 1 µM | < 0.1 µM | < 0.1 µM | < 0.1 µM | < 0.1 µM | < 0.1 µM |  |  |  |  |  |  |  |
| CCN(c1nc(OC[C@@]23CCCN2C[C@H](F)C3)nc2c(F)c(-c3ccc(F)c4sc(N)c(C#N)c34)c(C(F)(F)F)cc12)[C@H]1CCN(C(=O)N(C)C2CC2)C1 (atropisomer, axis not shown) [Compound 583] | < 0.1 µM | < 0.1 µM | < 0.1 µM | < 0.1 µM | < 0.1 µM | < 0.1 µM |  |  |  |  |  |  |  |
| CCN(c1nc(OC[C@@]23CCCN2C[C@H](F)C3)nc2c(F)c(-c3ccc(F)c4sc(N)c(C#N)c34)c(C(F)(F)F)cc12)[C@H]1C[C@H](COC)N(C(C)=O)C1 (atropisomer, axis not shown) [Compound 647] | < 0.1 µM | 0.1 to 1 µM | < 0.1 µM | 0.1 to 1 µM | < 0.1 µM | < 0.1 µM |  |  |  |  |  |  |  |
| CC(C)C(=O)N1C[C@@H](N(C)c2nc(OC[C@@]34CCCN3C[C@H](F)C4)nc3c(F)c(-c4ccc(F)c5sc(N)c(C#N)c45)c(C(F)(F)F)cc23)C[C@H]1C [Compound 448] |  |  |  |  |  |  | 0.1 to 1 µM | < 0.1 µM | 1 to 10 µM | 0.1 to 1 µM | 1 to 10 µM | 0.1 to 1 µM |  |
| N#Cc1c(N)sc2c(F)ccc(-c3c(C(F)(F)F)cc4c(N(C5CC5)[C@H]5CCN(C(=O)[C@H]6CCO6)C5)nc(OC[C@@]56CCCN5C[C@H](F)C6)nc4c3F)c12 (atropisomer, axis not shown) [Compound 812] | 0.1 to 1 µM | 0.1 to 1 µM | < 0.1 µM | 0.1 to 1 µM | < 0.1 µM | < 0.1 µM |  |  |  |  |  |  |  |
| C[C@@H]1[C@H](N(C)c2nc(OC[C@@]34CCCN3C[C@H](F)C4)nc3c(F)c(-c4ccc(F)c5sc(N)c(C#N)c45)c(Cl)cc23)CCN1C(=O)C(C)(C)F [Compound 421] |  |  |  |  |  |  | 0.1 to 1 µM | 0.1 to 1 µM | 1 to 10 µM | 1 to 10 µM | 1 to 10 µM | 1 to 10 µM |  |
| N#Cc1c(N)sc2c(F)ccc(-c3c(C(F)(F)F)cc4c(N5CCC[C@@H](CO)C5)nc(OC[C@@]56CCCN5C[C@H](F)C6)nc4c3F)c12 [Compound 316] |  |  |  |  |  |  | < 0.1 µM | < 0.1 µM | 1 to 10 µM | 0.1 to 1 µM | 0.1 to 1 µM | 0.1 to 1 µM |  |
| CCC(=O)N1CC[C@@H](N(CC)c2nc(OC[C@@]34CCCN3C[C@H](F)C4)nc3c(F)c(-c4ccc(F)c5sc(N)c(C#N)c45)c(Cl)cc23)[C@H]1C [Compound 324] |  |  |  |  |  |  | < 0.1 µM | < 0.1 µM | 0.1 to 1 µM | 0.1 to 1 µM | 0.1 to 1 µM | 0.1 to 1 µM |  |
| C[C@@H]1[C@H](N(C)c2nc(OC[C@@]34CCCN3C[C@H](F)C4)nc3c(F)c(-c4ccc(F)c5sc(N)c(C#N)c45)c(C(F)(F)F)cc23)CCN1C(=O)C1(C)CC1 [Compound 313] |  |  |  |  |  |  | < 0.1 µM | < 0.1 µM | 0.1 to 1 µM | 0.1 to 1 µM | 0.1 to 1 µM | 0.1 to 1 µM |  |
| CCN(c1nc(OCC23CCCN2CC(F)C3)nc2c(F)c(-c3ccc(F)c4sc(N)c(C#N)c34)c(C(F)(F)F)cc12)C1CCN(C(=O)c2ncccn2)C1 (stereo not drawn) [Compound 712] | < 0.1 µM | < 0.1 µM | < 0.1 µM | < 0.1 µM | < 0.1 µM | < 0.1 µM |  |  |  |  |  |  |  |
| CCN(c1nc(OC[C@@]23CCCN2C[C@H](F)C3)nc2c(F)c(-c3ccc(F)c4sc(N)c(C#N)c34)c(C(F)(F)F)cc12)[C@H]1CCN(C(=O)c2ccnn2C)C1 (atropisomer, axis not shown) [Compound 723] | < 0.1 µM | < 0.1 µM | < 0.1 µM | < 0.1 µM | < 0.1 µM | < 0.1 µM |  |  |  |  |  |  |  |
| CCN(c1nc(OC[C@@]23CCCN2C[C@H](F)C3)nc2c(F)c(-c3ccc(F)c4sc(N)c(C#N)c34)c(C(F)(F)F)cc12)[C@H]1CCN(C(=O)C(C)(F)F)C1 (atropisomer, axis not shown) [Compound 587] | < 0.1 µM | < 0.1 µM | < 0.1 µM | < 0.1 µM | < 0.1 µM | < 0.1 µM |  |  |  |  |  |  |  |
| CCN(c1nc(OC[C@@]23CCCN2C[C@H](F)C3)nc2c(F)c(-c3ccc(F)c4sc(N)c(C#N)c34)c(C(F)(F)F)cc12)[C@H]1CCN(C(=O)C2CC(F)(F)C2)C1 (atropisomer, axis not shown) [Compound 550] |  |  |  |  |  |  | < 0.1 µM | < 0.1 µM | 0.1 to 1 µM | < 0.1 µM | < 0.1 µM | < 0.1 µM |  |

— patent US20260042764A1, “COMPOSITIONS AND METHODS FOR INHIBITION OF KRAS” (TheRas, Inc., priority 2022, published 2026)
